Test results published in patent US20220000816A1, “COMPOSITION AND METHOD OF INHIBITING ACTIVITY OF MINERALOCORTICOID RECEPTOR BY APPLYING IT TO THE SKIN” (AMOREPACIFIC CORPORATION, priority 2018, published 2022).

Test system: mineralocorticoid receptor
Test: MMTV-luciferase reporter assay of mineralocorticoid receptor activity in CV-1 cells stimulated with dexamethasone
Format: cell-based
Conditions: 10 μg/ml compound, after 2 hours dexamethasone (1 nM), cultivated 24 hours, normalized to Renilla luciferase, FIG. 2
Method: RNA was separated from a CV-1 cell and PCR was performed using reverse transcriptase, so gene expressions of a glucocorticoid receptor (GR) and a mineralocorticoid receptor (MR) were confirmed, and the results are shown in FIG. 1.
The CV-1 cell was cultivated in a 24-well flat incubator. After 24 hours, the incubating medium was replaced with a 10% charcoal dextran-treated FBS-DMEM, and then after 4 hours, mixed DNA of a MMTV-luciferase reporter plasmid and an internal control group of a pRL-SV-40 plasmid was transfected using TransFast reagent (Promega). After 24 hours, it was treated with 10 μg/ml of the compound (Ramidus AB) represented by Chemical Formula 1-1, and after 2 hours, was treated with dexamethasone (1 nM), and then cultivated for 24 hours. The luciferase activity in the cell lysate was measured using a Dual-Luciferase Reporter Assay System (Promega), and the transfection efficiency was normalized by revising Renilla luciferase activity to measure a relative luciferase activity, and the results are shown in FIG. 2.

## CC(C)c1ccc2c(c1)CC[C@H]1[C@@H](C)C(C(=O)O)CC[C@]21C (stereo partly shown) [Chemical Formula 1-1]
  relative luciferase activity (activity of the mineralocorticoid receptor by dexamethasone): deteriorated activity of the mineralocorticoid receptor
